EP1201248A2, “Combination therapy of angiotensin converting enzyme inhibitor, side-effect reduced amount of aldosterone antagonist and diuretic for treatment of cardiovascular disease” (priority 1995, dated 1996)

Experiments:
[1] = Human clinical trial of ACE inhibitor, spironolactone and loop diuretic: weight, vital signs and cardiac assessments; assay type: in vivo, humans; details: for Supine diastolic BP, Mean Change from Baseline to Week 12 / Supine pulse, Mean Change from Baseline to Week 12 / Supine systolic BP, Mean Change from Baseline to Week 12 / Weight, Mean Change from Baseline to Week 12: with stable ACE inhibitor and loop diuretic, spread in parentheses
Excerpt: Concurrent medication within the past 30 days. • 2. 12-lead ECG • 3. […] Signs and symptoms within the past 30 days.
All statistical methods were two-sided.

[2] = spironolactone 100 mg/day coadministered with an ACE inhibitor; congestive heart failure; cited from earlier work
[3] = spironolactone 50 mg/day to 100 mg/day (average 73 mg/day) and captopril; 90-patient study; cited from earlier work
[4] = cited from earlier work
[5] = Human clinical trial of ACE inhibitor, spironolactone and loop diuretic: clinical laboratory values and neurohormones
[6] = Human clinical trial of ACE inhibitor, spironolactone and loop diuretic: adverse events, hyperkalemia incidence, hospitalizations, deaths; details: patients previously at the 50 mg dose

## CC(=O)S[C@@H]1CC2=CC(=O)CC[C@]2(C)[C@H]2CC[C@@]3(C)[C@@H](CC[C@@]34CCC(=O)O4)[C@H]12 [Spironolactone, 17-hydroxy-7a-mercapto-3-oxo-17a-pregn-4-ene-21-carboxylic acid γ-lactone acetate]
[1]; 25 mg, 50 mg and 75 mg groups, all visits, standing and supine
  mean systolic and diastolic blood pressure, change: decreases in mean systolic and diastolic blood pressure
[1]; 75 mg dose group, Day 9 and Week 4, not observed at later visits
  body weight, change from baseline: more weight loss than other patients
[1]; Day 9 (p = 0.019), not seen at later visits (p >0.20)
  sodium retention score, dose response: higher doses showing more reduction in sodium retention score
[1]; Week 8 (p = 0.004), compared to the placebo group, not observed at Week 12
  changes in loop diuretic therapy: more patients on the higher doses of spironolactone had decreases in the loop diuretic dose
[1]; spironolactone 25 mg/d
  Supine diastolic BP, Mean Change from Baseline to Week 12: -2.74 ( 9.57)
  Supine pulse, Mean Change from Baseline to Week 12: -1.40(10.00) BPM
  Supine systolic BP, Mean Change from Baseline to Week 12: -4.46(13.97)
  Weight, Mean Change from Baseline to Week 12: -0.16 (3.02)
[1]; spironolactone 50 mg/d
  Supine diastolic BP, Mean Change from Baseline to Week 12: -5.11(11.11)
  Supine pulse, Mean Change from Baseline to Week 12: -3.21(11.27) BPM
  Supine systolic BP, Mean Change from Baseline to Week 12: -7.04(15.83)
  Weight, Mean Change from Baseline to Week 12: 0.62 (2.05)
[1]; spironolactone 75 mg/d
  Supine diastolic BP, Mean Change from Baseline to Week 12: -5.91 (9.05)
  Supine pulse, Mean Change from Baseline to Week 12: -1.07(13.79) BPM
  Supine systolic BP, Mean Change from Baseline to Week 12: -5.68(15.62)
  Weight, Mean Change from Baseline to Week 12: -0.81 (2.70)
[1]; spironolactone groups vs placebo group
  NYHA Class, improvement: the difference was not statistically significant
[2]
  patients in whom treatment was highly effective: 13 of 16
[3]
  control of refractory CHF: effective to control refractory CHF without serious incidents of hyperkalemia
[4]; cohort treated with spironolactone sub-cutaneously, side-by-side with a captopril cohort
  fibrosis in hypertensive rats: found to prevent fibrosis in the hypertensive-rat cohort
[4]; irrespective of left ventricular hypertrophy and hypertension
  fibrosis in animal models: shown to prevent fibrosis in animal models
[5]; Day 9, Week 4 and Week 12 (P ≤0.001)
  PRA, change from baseline, dose-response: greater increases in PRA
[5]; Week 12 (p = 0.002)
  Urinary aldosterone excretion, change from baseline, dose response: Greater increases were seen at higher doses
[5]; all active treatments, all treatment visits
  N-Terminal Atrial Natriuretic Factor (ANF), change from baseline: decreases from baseline at all treatment visits
[5]; all treatment period visits (p <0.001)
  serum potassium, change from baseline, dose-response: larger increases in potassium
[6]
  deaths within 30 days after the study was completed: Three patients died
